PMC8151276, “An Integrated Approach toward NanoBRET Tracers for Analysis of GPCR Ligand Engagement” (Molecules, 2021)

Key:
Type in all cases: binding
[1] = molecular target: T1, AVPR2 (Homo sapiens, UniProt P30518); test: NanoBRET screen HiBiT-AVPR2 in HEK293
T1 construct: purchased Promega (in-house HiBiT-GPCR construct library, NanoBRET)
Protocol: (§1) Each tracer candidate was screened across the entire library of HiBiT-GPCR constructs using NanoBRET as the detection modality. As depicted in Figure 4A, the specificity of interactions was evaluated through decrease in BRET due to competitive displacement of a bound tracer by excess parental compound. Each tracer was analyzed for binding to each HiBiT-GPCR fusion in the absence and in the presence of competing parental compound. Briefly, HEK293 cells were transfected with HiBiT-GPCR constructs diluted into promoterless DNA to reduce expression and maximize translocation to the cell surface. Each tracer candidate was then screened at concentrations of 1 μM and 0.1 μM across cells expressing these fusions. Cells were treated for 1.5 h with tracer either alone or in the presence of 20 μM competing parental compound (i.e., control). BRET was measured upon addition of purified LgBiT and subsequent complementation with HiBiT genetically fused to a GPCR. The specificity of interactions was assessed through a decrease in BRET signal due to competitive displacement of the bound tracer. To further gauge the robustness of these interactions, the fold response over the control (i.e., BRETtracer/BRETcontrol) was calculated. We chose a 1.5-fold response, which translates to ≥7-fold signal over noise as the minimal threshold required to score an interaction as positive. […]. Below we highlight the screening results obtained for our exemplary fluorescent tracers based on Clozapine, Amitriptyline and AZD1283.
(§2) HiBiT-GPCR DNA constructs were diluted in 10 mM Tris pH 8 to a final concentration of 0.01 μg/μL, arrayed in 96-well plates and stored at −20 °C. For transfection, HEK293 cells were suspended in Opti-MEM (without phenol red) supplemented with 2% fetal bovine serum (Seradigm) and 100 units/mL penicillin–streptomycin (Gibco) at a final concentration of 220,000 cells/mL and dispensed into white 96-well plates at 90 μL/well. Subsequent transfections and screens were carried using an Agilent Bravo Automated Liquid Handling Platform. First, the 96-well HiBiT DNA arrays were diluted 25-fold in Opti-MEM (without serum or phenol red) to a final concentration of 0.0004 μg/μL and 20 μL of the diluted DNAs were transferred into new 96-well plates. Next, promoterless carrier DNA (1 μg/μL) was diluted 25-fold (0.04 μg/μL) and then dispensed into the diluted arrays at 20 μL/well. Following brief mixing, Viafect transfection reagent (Promega) diluted 16-fold into Opti-MEM was dispensed into the plates at 40 μL/well. After mixing by pipetting, plates were incubated for 10 min on the pipetting station deck. The DNA-transfection reagent complexes were then added to plates containing cells. To facilitate the screen, 10 μL of DNA-transfection reagent complexes were added in duplicates to the top 4 and bottom 4 rows, resulting in two identical 48-well arrays per plate. Plates with transfected cells were incubated for 18–20 h at 37 °C/5% CO2. A screen of each tracer across the entire library using two different concentrations requires duplicate plates of transfected cells. Depending on the number of tracers being screened, transfections can be scaled up using the same ratios. The next day, for each tracer, four 20× screening solutions in tracer dilution buffer (Promega) were prepared: two duplicates at final concentration of 20 μM and two duplicates at a final concentration of 2 μM. A competing unmodified compound was added to one of each duplicate at a final concentration of 400 μM. The four resulting solutions were diluted 4-fold in Opti-MEM without serum or phenol red to generate 5× solutions (5 µM and 0.5 µM tracer +/− 100 μM competing compound). To screen the library, a BioTek MultiFlo FX liquid dispenser was used to dispense 22.5 µL of tracer solution to the top 4 rows and 22.5 µL tracer + competing compound solution to the 4 bottom rows. Plates were briefly mixed on an orbital shaker and incubated for 1.5 h at room temperature. […]

[2] = molecular target: T2, CCR9 (Homo sapiens, UniProt P51686); test: NanoBRET screen HiBiT-CCR9 in HEK293
T2 construct: purchased Promega (in-house HiBiT-GPCR construct library, NanoBRET)
T2 sequence (P51686 1-369): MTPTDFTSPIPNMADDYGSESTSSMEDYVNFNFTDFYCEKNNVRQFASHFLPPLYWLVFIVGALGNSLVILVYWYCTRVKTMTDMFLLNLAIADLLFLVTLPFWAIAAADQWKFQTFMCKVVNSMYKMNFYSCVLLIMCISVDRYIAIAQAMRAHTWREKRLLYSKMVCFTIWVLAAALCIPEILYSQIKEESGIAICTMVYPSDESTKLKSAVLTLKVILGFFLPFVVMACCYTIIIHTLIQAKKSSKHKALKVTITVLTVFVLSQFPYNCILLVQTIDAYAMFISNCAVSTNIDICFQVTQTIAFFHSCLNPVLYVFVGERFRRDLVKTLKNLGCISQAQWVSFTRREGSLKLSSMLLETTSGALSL
Protocol: as §1, §2

[3] = molecular target: T3, P2RY10 (Homo sapiens, UniProt O00398); test: NanoBRET screen HiBiT-P2RY10 in HEK293
T3 construct: purchased Promega (in-house HiBiT-GPCR construct library, NanoBRET)
T3 sequence (O00398 whole entry, one chain of several): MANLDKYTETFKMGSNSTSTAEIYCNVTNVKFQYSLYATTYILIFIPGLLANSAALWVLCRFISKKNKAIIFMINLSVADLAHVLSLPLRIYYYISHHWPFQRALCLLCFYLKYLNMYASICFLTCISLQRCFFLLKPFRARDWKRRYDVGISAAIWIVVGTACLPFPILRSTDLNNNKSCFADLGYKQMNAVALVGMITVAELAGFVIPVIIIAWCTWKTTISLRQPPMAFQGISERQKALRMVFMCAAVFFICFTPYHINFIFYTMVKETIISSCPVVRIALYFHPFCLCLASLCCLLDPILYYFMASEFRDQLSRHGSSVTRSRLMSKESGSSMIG
Protocol: as §1, §2

[4] = molecular target: T4, GRPR (Homo sapiens, UniProt P30550); test: NanoBRET screen HiBiT-GRPR in HEK293
T4 construct: purchased Promega (in-house HiBiT-GPCR construct library, NanoBRET)
T4 sequence (P30550 whole entry): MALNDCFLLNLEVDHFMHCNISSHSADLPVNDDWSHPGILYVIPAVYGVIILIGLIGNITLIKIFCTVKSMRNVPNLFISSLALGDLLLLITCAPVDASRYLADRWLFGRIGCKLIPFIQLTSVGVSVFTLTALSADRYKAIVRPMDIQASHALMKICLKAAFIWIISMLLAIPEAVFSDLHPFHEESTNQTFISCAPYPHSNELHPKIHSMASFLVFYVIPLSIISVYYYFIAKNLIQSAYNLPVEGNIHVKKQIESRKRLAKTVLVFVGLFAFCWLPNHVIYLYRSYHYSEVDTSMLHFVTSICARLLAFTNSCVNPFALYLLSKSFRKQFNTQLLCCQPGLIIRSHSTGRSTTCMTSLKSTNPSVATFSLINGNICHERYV
Protocol: as §1, §2

[5] = molecular target: T5, HCRTR1 (Homo sapiens, UniProt O43613); test: NanoBRET screen HiBiT-HCRTR1 in HEK293
T5 construct: purchased Promega (in-house HiBiT-GPCR construct library, NanoBRET)
T5 sequence (O43613 1-425): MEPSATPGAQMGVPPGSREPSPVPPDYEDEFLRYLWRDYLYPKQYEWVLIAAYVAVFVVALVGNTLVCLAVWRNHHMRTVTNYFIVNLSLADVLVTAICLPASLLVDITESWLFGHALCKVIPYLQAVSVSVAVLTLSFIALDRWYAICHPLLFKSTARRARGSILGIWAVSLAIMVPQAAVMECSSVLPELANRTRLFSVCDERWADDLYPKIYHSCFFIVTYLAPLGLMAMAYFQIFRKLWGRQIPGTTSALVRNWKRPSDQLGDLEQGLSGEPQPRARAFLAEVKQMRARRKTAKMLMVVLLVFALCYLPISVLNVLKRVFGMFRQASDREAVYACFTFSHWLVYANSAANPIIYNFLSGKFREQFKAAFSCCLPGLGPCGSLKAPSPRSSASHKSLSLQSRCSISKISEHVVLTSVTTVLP
Protocol: as §1, §2

T1 sequence (P30518 whole entry): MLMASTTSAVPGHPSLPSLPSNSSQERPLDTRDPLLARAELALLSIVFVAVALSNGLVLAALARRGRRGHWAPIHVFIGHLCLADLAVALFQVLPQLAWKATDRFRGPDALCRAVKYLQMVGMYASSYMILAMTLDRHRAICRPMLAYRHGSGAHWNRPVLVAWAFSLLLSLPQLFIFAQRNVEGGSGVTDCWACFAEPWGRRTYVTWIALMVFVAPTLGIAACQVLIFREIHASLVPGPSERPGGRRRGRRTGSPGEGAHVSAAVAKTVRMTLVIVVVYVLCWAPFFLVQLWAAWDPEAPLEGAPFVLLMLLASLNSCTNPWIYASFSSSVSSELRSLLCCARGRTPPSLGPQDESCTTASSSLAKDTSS

Compound	NanoBRET Fold Response ([1]; AVPR2, tracer 0.1μM)	NanoBRET Fold Response ([1]; AVPR2, tracer 1μM)	NanoBRET Fold Response ([2]; CCR9, tracer 0.1μM)	NanoBRET Fold Response ([2]; CCR9, tracer 1μM)	NanoBRET Fold Response ([3]; P2RY10, tracer 0.1μM)	NanoBRET Fold Response ([3]; P2RY10, tracer 1μM)	NanoBRET Fold Response ([4]; GRPR, tracer 0.1μM)	NanoBRET Fold Response ([4]; GRPR, tracer 1μM)	NanoBRET Fold Response ([5]; HCRTR1, tracer 0.1μM)	NanoBRET Fold Response ([5]; HCRTR1, tracer 1μM)	further results
O=C(CCc1ccc2n1[B-](F)(F)[N+]1=C(c3ccc[nH]3)C=CC1=C2)NCc1ccc(C(=O)NCCOCCC(=O)N[C@@H]2CC[C@@]3(O)[C@H]4Cc5ccc(O)c6c5[C@@]3(CCN4CC3CC3)[C@H]2O6)cc1 [Naltrexone-3-NB590]	1.30	0.97	0.55	0.92	1.07	1.36	0.91	0.92	0.98	0.88	–
CCCn1c(=O)c2[nH]c(-c3ccc(OCC(=O)NCCNC(=O)CCOCCNC(=O)c4ccc(CNC(=O)CCc5ccc6n5[B-](F)(F)[N+]5=C(c7ccc[nH]7)C=CC5=C6)cc4)cc3)nc2n(CCC)c1=O [XAC-3-NB590]	0.73	0.91	0.95	1.57	0.88	0.84	1.24	1.01	0.91	0.88	–
CC(C)N(CC[C@H](c1ccccc1)c1cc(CCNC(=O)c2ccc(CNC(=O)CCc3ccc4n3[B-](F)(F)[N+]3=C(c5ccc[nH]5)C=CC3=C4)cc2)ccc1O)C(C)C [Tolterodine-BZ-NB590]	0.97	1.05	0.74	1.14	1.34	0.76	0.81	0.99	0.86	1.07	–
COc1ccc2[nH]c(-c3ccc(CNC(=O)CCOCCOCCOCCOCCNC(=O)CCc4ccc5n4[B-](F)(F)[N+]4=C(c6ccc[nH]6)C=CC4=C5)cc3)c(CCNC(C)=O)c2n1 [AzomelatoninICO9-2-NB590]	–	–	–	–	–	–	–	–	–	–	NanoBRET Fold Response ([1]; 0.1μM tracer): 0.84; NanoBRET Fold Response ([1]; 1μM tracer): 0.87; NanoBRET Fold Response ([2]; 0.1μM tracer): 0.97; NanoBRET Fold Response ([2]; 1μM tracer): 0.89; NanoBRET Fold Response ([3]; 0.1μM tracer): 0.88; NanoBRET Fold Response ([3]; 1μM tracer): 1.15; NanoBRET Fold Response ([4]; 0.1μM tracer): 0.84; NanoBRET Fold Response ([4]; 1μM tracer): 1.22; NanoBRET Fold Response ([5]; 0.1μM tracer): 0.60; NanoBRET Fold Response ([5]; 1μM tracer): 0.95
CN1CCN(C2=Nc3cc(Cl)ccc3N(CC(=O)NCCOCCOCCOCCOCCNC(=O)CCc3ccc4n3[B-](F)(F)[N+]3=C(c5ccc[nH]5)C=CC3=C4)c3ccccc32)CC1 [Clozapine-c-2-NB590]	–	–	–	–	–	–	–	–	–	–	NanoBRET Fold Response ([1]; AVPR2, 0.1μM tracer): 0.99; NanoBRET Fold Response ([1]; AVPR2, 1μM tracer): 1.00; NanoBRET Fold Response ([2]; CCR9, 0.1μM tracer): 1.02; NanoBRET Fold Response ([2]; CCR9, 1μM tracer): 0.87; NanoBRET Fold Response ([3]; P2RY10, 0.1μM tracer): 1.06; NanoBRET Fold Response ([3]; P2RY10, 1μM tracer): 0.98; NanoBRET Fold Response ([4]; GRPR, 0.1μM tracer): 1.01; NanoBRET Fold Response ([4]; GRPR, 1μM tracer): 0.99; NanoBRET Fold Response ([5]; HCRTR1, 0.1μM tracer): 0.98; NanoBRET Fold Response ([5]; HCRTR1, 1μM tracer): 1.00
COc1ccccc1N1CCN(CCCCN2C(=O)c3ccc(CNC(=O)CCOCCNC(=O)c4ccc(CNC(=O)CCc5ccc6n5[B-](F)(F)[N+]5=C(c7ccc[nH]7)C=CC5=C6)cc4)cc3C2=O)CC1 [NAN-190-3-NB590]	1.08	1.11	1.14	1.04	1.23	1.08	0.87	0.94	0.98	0.91	–
Cc1nc2n(c(=O)c1CCN1CCC(c3noc4cc(F)ccc34)CC1)CCCC2OC(=O)NCCOCCOCCOCCOCCNC(=O)CCc1ccc2n1[B-](F)(F)[N+]1=C(c3ccc[nH]3)C=CC1=C2 (stereo not drawn) [Risperidone-2-NB590]	1.04	1.01	1.02	0.94	1.14	1.14	0.96	0.91	1.01	1.05	–
O=C(CCOCCOCCOCCOCCNC(=O)CCc1ccc2n1[B-](F)(F)[N+]1=C(c3ccc[nH]3)C=CC1=C2)NCCCN1CCN(C2=Nc3ccccc3Oc3ccc(Cl)cc32)CC1 [Loxapine-a-2-NB590]	1.04	1.05	1.02	0.91	1.14	0.98	1.17	1.09	0.93	1.09	–
COc1ccccc1N1CCN(CCCCN2C(=O)c3ccc(CNC(=O)CCOCCOCCOCCOCCNC(=O)CCc4ccc5n4[B-](F)(F)[N+]4=C(c6ccc[nH]6)C=CC4=C5)cc3C2=O)CC1 [NAN-190-2-NB590]	1.00	0.98	0.98	0.99	–	0.95	0.99	0.92	–	–	–
CN(CCC=C1c2ccccc2CCc2ccccc21)C(=O)CCOCCOCCOCCOCCNC(=O)CCc1ccc2n1[B-](F)(F)[N+]1=C(c3ccc[nH]3)C=CC1=C2 [Amitriptyline-e-2-NB590]	–	–	–	–	–	–	–	–	–	–	NanoBRET Fold Response ([1]; tracer at 1μM): 0.99; NanoBRET Fold Response ([2]; tracer at 1μM): 0.95; NanoBRET Fold Response ([3]; tracer at 1μM): 0.99
